Where a name gives a salt, the structure may show the parent alone. Read-outs that look alike come from different tables or passages of the source. Values belong to the compound of their own block, whether it stands above or below them.
Columns and labels:
U937 cells [1] = test: Escape velocity, PMA inhibition by bisindolymaleimide; format: cell-based; settings: for Escape velocity Ave.: four hours
Source text: The objective of this experiment was to test the effect of bisindolymaleimide on cells exposed to PMA. Bisindolymaleimide is a Protein Kinase C inhibitor and should block the effect of PMA on U937 cells and their escape velocities. As shown in this and prior experiments, exposure of U937 cells to PMA results in an increase in the escape velocity of the cells. Therefore, it is anticipated that addition of bisindolymaleimide will reduce or eliminate the increase in escape velocity caused by PMA. This has in fact been observed in the data shown below.
Bisindolymaleimide was tested at two concentrations: 200 ng/ml and 50 ng/ml. Samples not treated with bisindolymaleimide received an equivalent amount of the carrier, MeOH, as a control. […] The concentration of PMA tested was 10 ng/ml. Samples not receiving PMA received DMSO.
Once the flasks were prepared, they were incubated at 37° C. 5% CO2 for four hours. At the four hour timepoint, 300 μl of cells were removed from each flask and pelleted at 5000 rpm for 5 minutes. The cells were then resuspended in 6 ml PBS/1% BSA and 60 μl trypan blue.

HL-60 cells = test: Fast scan analysis, differentiation of HL-60 cells; format: cell-based; settings: 1% DMSO
Protocol: (§1) Fast scan analysis was also performed on HL-60 cells that were treated with PMA and DMSO. A time course evaluation of PMA treated HL-60 cells was performed with fast scan data taken at 16 hours, 24 hours, 40 hours, and 72 hours post-treatment with 400 ng/ml PMA. A control sample of HL-60 cells was also tested using EtOH as the vehicle for purposes of comparing the differentiated cells with the undifferentiated HL-60 cells. The PMA-treated and control cells were harvested and trypsinized. The samples were then resuspended in PBS/1% BSA. A set of samples was also obtained and left as pellets at 4° C. for subsequent FACS analysis.
A time course evaluation of DMSO treated HL-60 cells was performed with fast scan data taken at 16 hours, 24 hours, 40 hours, and 70 hours post-treatment with 1% DMSO. A control sample of HL-60 cells was also tested for purposes of comparing the differentiated cells with the undifferentiated HL-60 cells. The DMSO-treated and control cells were then harvested and resuspended in PBS/1% BSA. A set of samples was also obtained and left as pellets at 4° C. for subsequent FACS analysis.

[2] = test system: CD11b expression in HL-60 cells; test: FACS CD11b expression profile; format: cell-based; settings: 1% DMSO
Protocol: as §1
FIG. 145 illustrates a histogram of the travel distance of the control cells as well as the PMA-treated cells at 16 hours, 24 hours, 40 hours, and 72 hours post-treatment. FIG. 146 illustrates the mean travel distances of the control cells as well as the PMA-treated cells at 16 hours, 24 hours, 40 hours, and 72 hours post-treatment. FIG. 147 illustrates the FACS CD11b expression profile in PMA-treated HL-60 cells as well as the control. CD11b is a known marker of cellular differentiation and is expressed on the surface of differentiating cells. […] The data illustrate that Optophoretic analysis can be used as an assay for the detection and quantification of cellular differentiation. […]

[3] = test system: Erythromycin-resistant strain; test: Bacterial screen for drug sensitivity, escape velocity; format: cell-based, Staphylococcus aureus; settings: 5 μg/ml Erythromycin
Protocol: (§2) In this experiment, escape velocity was measured over time in wild type Staphylococcus aureus and an Erythromycin-resistant strain. 5 μg/ml of Erythromycin was applied to both the wild type Staphylococcus aureus and an Erythromycin-resistant strain. Escape velocity measurements were taken at time zero, 30 minutes post-treatment, and 3 hours post-treatment. […] In this experiment, however, escape velocity measurements were made at time zero, 30 minutes post-treatment, and 1 hour post-treatment, and 2 hours post-treatment. A reduction in escape velocity of the Erythromycin-sensitive strain can be seen at 1 hour post-treatment.

[4] = test system: wild type Staphylococcus aureus; test: as above; format: cell-based; settings: 5 μg/ml Erythromycin
Protocol: as §2

[5] = test system: K562, BV-173, EM-3, and U-937 cells; test: Escape velocity, effect of Gleevec; format: cell-based; settings: 72 hours after exposure, all four cell types
Source text: The U-937 cells have no copies of the gene. The K-562 line of cells has, on average, one copy of the gene per cell. The BV-173 line of cells has, on average, three copies of the gene per cell. The EM-3 cell line has, on average, five copies of the gene per cell. […] FIG. 44 illustrates the measured escape velocities (average) for each of the four cell types. […] In addition, the decrease in escape velocity for the Gleevec-treated cells was more pronounced in those cell lines that had higher copy numbers of the Bcr-Abl gene.

[6] = test system: K-562, BV-173, EM-3, and U-937 cell lines; test: Fast scan analysis, effect of Gleevec; format: cell-based; settings: 1 μM Gleevec, 48 hours, U-937 cells excepted
Source text: (§3) FIGS. 30A and 30B show optical interrogation of a group of cells 610 using a fast scan analysis. In this method, a moving optical gradient 612 (laser beam) in the form of a line is moved relative to the cells 610. […] Instead, an image can be taken of the cells 610 prior to the scan to determine the starting position of each cell 610. […] The distances traveled can be obtained by images taken of the cells 610 before and after the scanning process. The optical gradient 612 is moved at a speed that is higher than the escape velocity of all the cells 610 within the group. In this manner, all of the cells 610 are left behind the moving optical gradient 612. In an alternate fast scan embodiment, the cells 610 are initially lined up at a starting position A. After aligning the cells 610, the optical gradient 612 is rapidly moved and their distance of travel is measured by optical imaging. It should be understood that fast scan analysis may include multiple scans or “sweeps” of the cells 610. Generally, it has been observed that multiple scans produce larger cell movements.

Jurkat cells = test: Escape velocity, TNF-α effect on Jurkat cells; format: cell-based; settings: TNF inhibitor added with TNF
Protocol: After 48 hours of incubation, the cells were removed and centrifuged for 5 minutes at 5,000 rpm. Then the cells were resuspended in PBS/1% BSA and trypan blue. A higher power setting, 140 mW instead of 100 mW, was used for this experiment. The escape velocities were measured as follows:
In this experiment Leflunomide and Silymarin were added with TNF to see if the anticipated increase in escape velocity measurements could be counteracted by the presence of the TNF inhibitors.

U937 cells [7] = test system: U937 cells
Protocol: This experiment is designed to compare the effects of two concentrations of sodium salicylate on U937 cells. Sodium salicylate was prepared at two concentrations: 20 mM and 5 mM. The escape velocities of the cells was tested at 5 hours, 24 hours and 47 hours. At each timepoint, 30 μl of sample was pelleted at 5,000 rpm for 5 minutes and then resuspended in PBS/1% BSA and trypan blue.

Chang liver cells [8] = test: Escape velocity, toxicity of ketoconazole to liver cells; format: cell-based, human; settings: 1 μm of ketoconazole, 1.5 hours of treatment
Protocol: This experiment is designed to test the effect of ketoconazole on human liver cells. Ketoconazole induces toxicity in liver cells. The sample cells were Chang liver cells. The concentration of ketoconazole used to treat the cells was 1 μm. Escape velocity and fast scan protocols were applied to determine the impact, if any, of ketoconazole treatment. […] Consequently, Optophoresis was able to detect an effect on the escape velocity of treated cells within 1.5 hours of exposure to ketoconazole. FIGS. 44-45 show the fast scan results of ketoconazole-treated Chang liver cells. […] The ketoconazole-treated cells generally traveled a smaller distance as compared to the non-treated control.

Chang liver cells [9] = format: cell-based; settings: human, 1 μm
Source text: as §3
This experiment is designed to test the effect of ketoconazole on human liver cells. Ketoconazole induces toxicity in liver cells. The sample cells were Chang liver cells. The concentration of ketoconazole used to treat the cells was 1 μm. […]

CCRF-CEM = test: Escape velocity, topotecan on sensitive cell line; format: cell-based; settings: 10 μM topotecan, 6 hours
Protocol: In a fifth experiment, two different cell lines obtained from ATCC which have varying degrees of sensitivity to topoisomerase I inhibitors such as camptothecin and topotecan were subject to Optophoretic analysis. A group of cells from a parental cell line CCRF-CEM that is sensitive to camptothecin and topotecan were incubated for 6 hours with 10 μM topotecan. Another group of cells from the cell line CEM/C2, which are 970-fold less sensitive to camptothecin and topotecan, were also incubated for 6 hours with 10 μM topotecan. Control cells from both the CCRF-CEM and CEM/C2 cell lines were also tested. […] Escape velocity measurements were then taken using a 100 mW laser with a diameter of 28 pixels. […] Optophoretic analysis was thus able to score cross-resistance of camptothecin-resistant cell lines to topotecan, an analog of camptothecin.

CEM/C2 = CEM/C2 cell line obtained from ATCC; cited from earlier work
U937 cells [10] = test: Escape velocity, characterization of topoisomerase inhibitors

Compound: CN(C)CCCn1cc(C2=C(c3c[nH]c4ccccc34)C(=O)NC2=O)c2ccccc21 [Bisindolymalemide, Bisindolymaleimide]
Escape velocity Ave. (U937 cells [1]; 50 ng/ml bisindolymaleimide + 10 ng/ml PMA): 15.1 μm/sec
Escape velocity Ave. (U937 cells [1]; 50 ng/ml bisindolymaleimide, no PMA): 13.9 μm/sec
effect on PMA-caused shift in escape velocity (FIG. 33) (U937 cells [1]; 200 ng/ml BIMI for 30 minutes, then 10 ng/ml PMA): blocked the optophoretic shift in escape velocity
Escape velocity Ave. (U937 cells [1]; 200 ng/ml bisindolymaleimide + 10 ng/ml PMA): 14.5 μm/sec
Escape velocity Ave. (U937 cells [1]; 200 ng/ml bisindolymaleimide, no PMA): 14.0 μm/sec

Compound: C[S+](C)[O-] [DMSO, dimethylsulfoxide]
time after treatment at which a noticeable decrease of the mean travel distance was detected (HL-60 cells): ≤ 16 h
time after treatment at which a change in CD11b expression levels was detected [2]: 40 h

Compound: CC[C@H]1OC(=O)[C@H](C)[C@@H](O[C@H]2C[C@@](C)(OC)[C@@H](O)[C@H](C)O2)[C@H](C)[C@@H](O[C@@H]2O[C@H](C)C[C@H](N(C)C)[C@H]2O)[C@](C)(O)C[C@@H](C)C(=O)[C@H](C)[C@@H](O)[C@]1(C)O [Erythromycin]
escape velocity (FIG. 80) [3]: same escape velocity as the untreated Erythromycin-sensitive strain
time post-treatment at which a reduction in escape velocity can be seen (FIG. 81) [4]: 1 h
change of escape velocity over time (FIG. 80) ([4]; time zero, 30 minutes, 3 hours): decreases

Compound: Cc1ccc(NC(=O)c2ccc(CN3CCN(C)CC3)cc2)cc1Nc1nccc(-c2cccnc2)n1 [Gleevec, imatinib mesylate]
escape velocity as compared to non-treated cells (FIG. 40) [5]: significantly lower escape velocity
mean travel distances as compared to non-treated controls (FIG. 41) [6]: lower mean travel distances

Compound: Cc1oncc1C(=O)Nc1ccc(C(F)(F)F)cc1 [Leflunomide]
effect on TNF-caused increase in escape velocity (FIG. 36) (Jurkat cells): mitigate the increase in escape velocity caused by TNF

Compound: O=C([O-])c1ccccc1O.[Na+] [Sodium Salicylate, Sodium salicylate]
shift in escape velocities (FIG. 37) (U937 cells [7]; 5 mM and 20 mM, 5 and 24 hours): slight but statistically significant shift in escape velocities
Escape velocity Ave. (U937 cells [7]; 5 mM, 5 hours): 14.1
Escape velocity Ave. (U937 cells [7]; 5 mM, 24 hours): 15.2
Escape velocity Ave. (U937 cells [7]; 5 mM, 47 hours): 13.7
Escape velocity Ave. (U937 cells [7]; 20 mM, 5 hours): 13.3
Escape velocity Ave. (U937 cells [7]; 20 mM, 24 hours): 16.0
cell viability (trypan blue) (U937 cells [7]; 20 mM, 47 hours): all cells were dead

mean travel distance (Chang liver cells [9]): 20.97 μm
Compound: CC(=O)N1CCN(c2ccc(OCC3COC(Cn4ccnc4)(c4ccc(Cl)cc4Cl)O3)cc2)CC1 (stereo not shown) [ketoconazole]
escape velocity vs control (FIG. 46) (Chang liver cells [8]): marked decrease in escape velocity

Compound: CC[C@@]1(O)C(=O)OCc2c1cc1n(c2=O)Cc2cc3c(CN(C)C)c(O)ccc3nc2-1 [topotecan]
decrease in escape velocity as compared to the CEM/C2 cells (FIG. 67) (CCRF-CEM): larger decrease in escape velocity
less sensitive than parental cell line CCRF-CEM (CEM/C2): 970 fold
shift in escape velocity as compared to the camptothecin-treated cells (FIG. 54) (U937 cells [10]; 4 μg/ml, four hours): larger shift in escape velocity
cellular debris (U937 cells [10]; 10 μM and 20 μM topotecan, six hours): a significant amount of cellular debris was present
cell death (U937 cells [10]; 10 μM topotecan, 24 hour): virtually all of the treated U937 cells were dead
dead or necrotic cells (U937 cells [10]; 2.5, 5 and 10 μM topotecan, 4 hour): not a significant number of dead or necrotic cells

Reference: patent US20040121474A1, “Detection and evaluation of chemically-mediated and ligand-mediated t-cell activation using optophoretic analysis” (Genoptix, Inc, priority 2002, published 2004)
